The data set in a line: gradient 5% acetonitrile 3 min, to 50% in 2 min, to 85% in 15 min, held 3 min, 100 µL/min. The settings on record: column: Zorbax Extend-C18 2.1 x 50 mm; eluents: water / acetonitrile, 0.1% formic acid. The gist of the method: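 Retention time was recorded from adduct peaks, which were picked computationally and each inspected manually. Pure standards ran in mixtures of ~100 molecules on HPLC coupled to a quadrupole time-of-flight mass spectrometer, in positive and negative ionization mode, through a Zorbax Extend-C18 column (2.1 × 50 mm, 1.8 μm) at 100 μL/min. Eluents were water and acetonitrile, each with 0.1% formic acid.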
In turn, `CCCCn1cc(S(=O)(=O)NCc2ccc(F)cc2Cl)c2cccnc21` gave an RP-LC retention time of 1030 s.

Molecule `Cc1ccc(S(=O)(=O)N(C)CC2CCOCC2)cc1F` showed an RP-LC retention time of 850 s.

On to `COC(=O)c1cnc2nc(C)ccc2c1Nc1cccc(F)c1`, for which the RP-LC retention time came to 673 s.

Consider `CCN1CCCn2cc(S(=O)(=O)Nc3ccc(C)cc3)cc2C1=O`, for which the RP-LC retention time was 1130 s.

On to `CCOc1ccc(S(=O)(=O)N2CCCC(C(=O)Nc3cc(C)ccc3OC)C2)cc1` (stereo not given), for which the RP-LC retention time was determined as 1090 s.

The molecule `COC(=O)c1cc2c(=O)n(Cc3ccc(OC)c(OC)c3)ccc2nc1C` came in with an RP-LC retention time of 760 s.

`CCOc1ccccc1-c1noc(Cn2cnc3c(cnn3-c3ccc(C)c(Cl)c3)c2=O)n1` registered an RP-LC retention time of 1230 s.

For the molecule `CCCCc1ccc(Nc2ncccc2S(N)(=O)=O)cc1`, the RP-LC retention time amounted to 1060 s.

In turn, `CCc1nc(-c2cccc(-c3noc(CNS(=O)(=O)c4ccc(F)cc4)n3)c2)cs1` had an RP-LC retention time of 1060 s.

With `CCC(C(=O)NCCCOC)n1c2ccccc2c2cnn(C)c(=O)c21` (stereo not given), the RP-LC retention time stood at 749 s.

In the case of `O=C(Nc1ccc2ccccc2c1)c1cccc(F)c1`, the RP-LC retention time stood at 1060 s.

`Cc1cc(=O)n2c(-c3ccc(NC(=O)C(C)Oc4ccc5c(c4)OCO5)cc3)csc2n1` (stereo not given): the RP-LC retention time was 757 s.

Consider `O=C(CN1C(=O)C(C(=O)N2CCCCCC2)Sc2ccccc21)NC1CCCCC1` (stereo not given), for which the RP-LC retention time amounted to 1090 s.

On to `Cc1ccc(C)c(S(=O)(=O)N2CCCC2c2nc(-c3ccc(Cl)cc3)no2)c1` (stereo not given), for which the RP-LC retention time was determined as 1270 s.

`O=C(NC1CCCC1)c1nc(C(=O)N2CCN(c3ccccn3)CC2)cs1` returned an RP-LC retention time of 595 s.

In turn, `COc1ccc(-c2noc(Cc3nnc(-c4cccc(Br)c4)o3)n2)cc1OC` registered an RP-LC retention time of 988 s.

The molecule `COc1cccc2cc(C(=O)Nc3ccc(-c4ccc(N5CCCC5)nn4)cc3)oc12` gave an RP-LC retention time of 607 s.

The molecule `COc1ccc(-c2ccnn2-c2ccc(SCc3ccc(C)cc3)nn2)cc1` registered an RP-LC retention time of 1420 s.

`CCc1cccc(NC(=O)C2CCc3nc(N4CCOCC4)ncc3C2)c1` (stereo not given) returned an RP-LC retention time of 839 s.

Regarding `Cc1cc(C)n(-c2ccc(C(=O)NCc3ccc(Cl)cc3)cn2)n1`, the RP-LC retention time was 990 s.

Take `O=C(Nc1ccc(NC(=O)N2CCC(C(=O)NCC3CC3)CC2)cc1)NC1CCCCC1`: the RP-LC retention time came out at 733 s.

Take `CCC(C)NC(=O)c1nnc(-c2ccc(S(=O)(=O)N3CCCCC3)cc2)o1` (stereo not given): the RP-LC retention time was 961 s.

Consider `NS(=O)(=O)c1ccc(CCNC(=O)C2CN(c3nc4c(F)cccc4s3)C2)cc1`, for which the RP-LC retention time is 660 s.

In turn, `COc1cccc(CNC(=O)NCCc2cn(C)c3ncccc23)c1` registered an RP-LC retention time of 642 s.

Molecule `Cc1[nH]c(C(=O)N2CCN(c3ccccc3F)CC2)c(C)c1S(=O)(=O)N1CCC(C)CC1` yielded an RP-LC retention time of 1040 s.

Consider `COc1ccc(CN2C=C(C(=O)OCc3nc(-c4ccccc4F)no3)C(C)=NS2(=O)=O)cc1`, for which the RP-LC retention time stood at 1060 s.

Consider `O=c1c2sccc2n(Cc2nc(-c3ccc(C(F)(F)F)cc3)no2)c(=O)n1Cc1ccccc1`, for which the RP-LC retention time worked out at 1200 s.

As to `Cc1cc(C)n2nc(SCC(=O)Nc3ccccc3)nc2n1`, the RP-LC retention time was 700 s.

Molecule `COc1ccccc1CNC(=O)Cn1c(=O)cc(-c2nc(C3CC3)no2)c2ccccc21` showed an RP-LC retention time of 932 s.

`COC(=O)c1cccc(Nc2c(-c3cccc(O)c3)nc3cnccn23)c1` registered an RP-LC retention time of 696 s.

In the case of `CCOC(=O)c1[nH]c(C)c(CCC(=O)N2CCC(C(=O)NCCN3CCN(CC)CC3)CC2)c1C`, the RP-LC retention time was found to be 577 s.

With `CC1CCC(C(C)C)C(NC(=O)c2ccncc2)C1` (stereo not given), the RP-LC retention time amounted to 894 s.

For the molecule `Cc1c(C(=O)NCCCN2CCC(C)CC2)sc2ncn(CC(=O)N3CCCCC3C)c(=O)c12` (stereo not given), the RP-LC retention time amounted to 628 s.

Molecule `O=C(CCc1nc2ccccc2[nH]1)NCC1CCOCC1` came in with an RP-LC retention time of 555 s.

`COc1ccc(-c2noc(-c3nnn4c3COC(c3ccc(C)cc3C)C4)n2)cc1F` (stereo not given) gave an RP-LC retention time of 1260 s.

In turn, `CCOCCCNS(=O)(=O)c1cc(-c2ccno2)cs1` returned an RP-LC retention time of 796 s.

Regarding `COc1ccccc1N1CCN(c2ncc(S(=O)(=O)c3ccc(C(C)C)cc3)c(N)n2)CC1`, the RP-LC retention time worked out at 1120 s.

As to `O=C1CCCCC(CNC(=O)c2cnccn2)N1` (stereo not given), the RP-LC retention time was 577 s.

Turning to `Cc1cc(C)cc(C(=O)N2CCCC(C(=O)NCCN3CCCC3)C2)c1` (stereo not given), the RP-LC retention time was determined as 606 s.

Turning to `CCn1c(=O)c(N2CCCC(C(=O)N3CCN(c4cccc(C)c4C)CC3)C2)nc2ccccc21` (stereo not given), the RP-LC retention time came out at 1350 s.

Turning to `CCOC(=O)CNC(=O)N1CCN(CCn2c(C(F)(F)F)nc3cccnc32)CC1`, the RP-LC retention time is 588 s.

`Clc1ccc(-c2nc3ccccn3c2Nc2ccc3c(c2)OCCO3)cc1` showed an RP-LC retention time of 708 s.

Take `CCc1noc(-c2ccc(-n3ncc(C(=O)NC4CCCCC4)c3C)nc2)n1`: the RP-LC retention time is 1020 s.

In the case of `COCCOC(=O)C1=C(C)NC2=C(C(=O)C(C(=O)OC)C(C)C2)C1c1cccc(F)c1` (stereo not given), the RP-LC retention time was found to be 832 s.

For the molecule `COc1ccc(NC(=O)N2CC3CCCN3c3ccccc32)cc1` (stereo not given), the RP-LC retention time worked out at 985 s.

In the case of `O=C(N[C@H]1C[C@@H]2C[C@H]1N(C(=O)NCc1cccc(F)c1)C2)c1cccs1`, the RP-LC retention time stood at 765 s.

In turn, `CC(CC(C#N)(c1ccccc1)c1ccccc1)N1CCCCC1` (stereo not given) came in with an RP-LC retention time of 780 s.

The molecule `O=C(O)c1ccc(NCCCO)c([N+](=O)[O-])c1` had an RP-LC retention time of 587 s.

The molecule `CCc1nc2c(c(=O)n1CC(=O)NCCC1=CCCCC1)CN(Cc1ccccc1)CC2` displayed an RP-LC retention time of 696 s.

Turning to `COc1ccc(C(=O)N2CCC[C@H]2c2nc(C(C)C)n[nH]2)c(OC)n1`, the RP-LC retention time was 590 s.

With `Cc1nnc2c(NC(=O)C3CCCC3)cccn12`, the RP-LC retention time was found to be 644 s.

For `COCCN1C(=O)CS(=O)C12CCN(C(=O)c1ccsc1)CC2` (stereo not given), the RP-LC retention time is 593 s.

In turn, `Cc1ccc(S(=O)(=O)N2CCC(c3nc(C(=O)N4CCOCC4)c(C)o3)CC2)cc1` came in with an RP-LC retention time of 824 s.

Turning to `CCOC(=O)c1c(C)n(CC(=O)OC)c2ccc(OC)cc12`, the RP-LC retention time came out at 904 s.

`Cc1cc(=O)n(CC(=O)NCc2ccc(F)c(Cl)c2)c(N2CCCCC2)n1`: the RP-LC retention time was 716 s.

As for `O=C(C1CCN(c2nn3c(=O)c4c(nc3s2)CCCC4)CC1)N1CCN(c2ncccn2)CC1`, the RP-LC retention time was found to be 672 s.

The molecule `Cc1ccc(Sc2nccnc2N2CCCC(C(=O)NCc3ccccc3C)C2)cc1` (stereo not given) displayed an RP-LC retention time of 1150 s.

In turn, `CC(C)c1c(C2CCN(C(=O)c3cc(F)ccc3F)CC2)noc1N` came in with an RP-LC retention time of 774 s.

In the case of `CC1CCc2nc(NC(=O)CSc3nnc(-c4ccccc4)o3)sc2C1` (stereo not given), the RP-LC retention time is 989 s.

As to `Cc1nnc(-c2ccc3ccn(CC(=O)NCc4ccccc4Cl)c3c2)o1`, the RP-LC retention time turned out to be 779 s.

Consider `CCOC(=O)C1=C(CNc2ccc(C(F)(F)F)cc2)NC(=O)NC1c1ccc2c(c1)OCO2` (stereo not given), for which the RP-LC retention time was 966 s.

Take `Cc1nn2c(S(=O)(=O)NCC3CC3)c(C)nc2s1`: the RP-LC retention time was found to be 690 s.

`O=C(C1CCN(c2cnc(N3CCSCC3)nc2)CC1)N1CCC2(CC1)OCCO2` showed an RP-LC retention time of 692 s.

`Cc1ccc(CNC(=O)C2CCCN(c3ncnc4c3oc3ccccc34)C2)cc1` (stereo not given) displayed an RP-LC retention time of 807 s.

`O=c1[nH]c2ccc(O)cc2o1`: the RP-LC retention time came out at 563 s.

`Cc1onc(C(=O)N2CCc3c(c(-c4nncn4C)nn3C)C2)c1Cn1cc(Cl)cn1` displayed an RP-LC retention time of 649 s.

`COc1cc(NC(=O)C2CCN(C(=O)c3ncn4c3COC(c3ccccc3)C4)CC2)cc(OC)c1` (stereo not given) yielded an RP-LC retention time of 846 s.

`Fc1cccc(-c2nc(-c3ccnc(N4CCOCC4)c3)no2)c1` gave an RP-LC retention time of 967 s.

`CCS(=O)(=O)N1CCCN(C2=NS(=O)(=O)C(c3ccc(C)cc3)=C2C)CC1` yielded an RP-LC retention time of 827 s.

`Cc1cc2nc(Nc3nc(SCc4ccc(Cl)cc4)cc(=O)[nH]3)nc(C)c2cc1C` yielded an RP-LC retention time of 1110 s.

Take `O=C(Cc1cccs1)N1CCc2[nH]cnc2C1c1ccccc1` (stereo not given): the RP-LC retention time came out at 612 s.

`CC(C)CNC(=O)C1CCCN(c2ccnc(-c3ccc(F)cc3)n2)C1` (stereo not given): the RP-LC retention time turned out to be 659 s.

In turn, `O=C(Cc1ccc(Br)cc1)N1CCCN(c2cc(-c3ccc(F)cc3)[nH]n2)CC1` displayed an RP-LC retention time of 773 s.

The molecule `CC(=O)Nc1ccc(CCc2nc3ccc(C(=O)NCCc4c[nH]c5ccccc45)cc3[nH]2)cc1` showed an RP-LC retention time of 644 s.

As for `O=C(c1ccco1)N1CCCN(c2ccc(=O)n(-c3ccccc3)n2)CC1`, the RP-LC retention time turned out to be 684 s.

With `COC(=O)N1CCc2ccccc2C1C(=O)Nc1ccccc1C(F)(F)F` (stereo not given), the RP-LC retention time came to 877 s.

Molecule `Cc1ccc(Cn2c(=O)n(CCNC(=O)C3CC3)c3ncccc32)cc1` gave an RP-LC retention time of 740 s.

As for `CC(C)(C)c1ccc(-c2nc(-c3ccc(S(=O)(=O)N4CCOCC4)cc3)no2)cc1`, the RP-LC retention time came out at 1400 s.

Turning to `Cc1nnc(-c2ccc3ccn(CC(=O)NCCCc4ccccc4)c3c2)o1`, the RP-LC retention time was found to be 807 s.

As for `Cc1ccc(-c2ccnc(SCC(=O)NCc3ccccc3)n2)cc1C`, the RP-LC retention time amounted to 944 s.
